In patent US20210205244A1, “PREVENTION AND/OR TREATMENT OF CHRONIC FATIGUE SYNDROME” (BOHNE ASKØY AS, priority 2016, published 2021):
Structures can show the parent of a compound that is named as a salt.

Tests used:
[1] = tested on: healthy and ME affected persons; conditions: general knowledge; cited from earlier work
Person 5 = test: Medicinal drug use in combination with the treatment; assay type: in vivo, human; conditions: Person 5, excluded after 20 weeks
Description: Three persons were not receiving the drinkable for self-treatment: 2, 5 and 6. […] Person 6 was excluded of toxicological consideration after 20 weeks because massive use of painkiller […] forte, 600 mg: 20 tablets per day, and was practically an abuser of medicinal drugs. Person 2 was excluded because use of sleep medicine-Alimemazin tartrate. All three drugs listed with long list of the negative by-effects. Those effects are very similar to the symptoms on the list of Canadian Criteria. Further treatment with mixture of drinkable oxalates was therefore is not considerate.

P12 = conditions: P12, altogether 8 doses; cited from earlier work

## O=C(O)CCCCC1CCSS1 (stereo not drawn) [ALA, alpha-lipoic acid]
[1]
  Time of excretion via urine post intake: 30 to 60 min

## CN(C)CCC[C@@]1(c2ccc(F)cc2)OCc2cc(C#N)ccc21 [Escitalopram Oxalate]
Person 5
  Adverse effect in combination with mixture of drinkable oxalates: massive diarrhea

## Rituximab: Rituximab therapy given in clinical studies at Haukeland University Hospital
P12
  Response to therapy: non-responder
